This note sets out measurements from article PMC6700223 (Frontiers in Microbiology, 2019).

The target of this experiment is HR1-1 peptide (HR1 domain of LASV GP2) (Lassa virus, UniProt P08669). In words: biochemical. Format: binding.
Sequence of HR1-1 peptide (HR1 domain of LASV GP2) (P08669 296-345 limits assumed): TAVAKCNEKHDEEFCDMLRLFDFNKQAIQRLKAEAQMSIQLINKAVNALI

On to `CC[C@H](C)[C@H](NC(=O)[C@H](CC(=O)O)NC(=O)[C@H](CC(=O)O)NC(=O)[C@H](CO)NC(=O)[C@H](Cc1ccccc1)NC(=O)[C@H](Cc1c[nH]cn1)NC(=O)[C@@H](NC(=O)[C@H](CCC(=O)O)NC(=O)[C@H](CC(N)=O)NC(=O)[C@H](CC(C)C)NC(=O)[C@H](Cc1ccc(O)cc1)NC(=O)[C@@H](N)CO)[C@@H](C)O)C(=O)N[C@@H](CCC(=O)O)C(=O)N[C@@H](CCC(N)=O)C(=O)N[C@@H](CCC(N)=O)C(=O)N[C@@H](C)C(=O)N[C@@H](CC(=O)O)C(=O)N[C@@H](CC(N)=O)C(=O)N[C@@H](CCSC)C(=O)N[C@H](C(=O)N[C@H](C(=O)N[C@@H](CCC(=O)O)C(=O)N[C@@H](CCSC)C(=O)N[C@@H](CC(C)C)C(=O)N[C@@H](CCC(N)=O)C(=O)N[C@@H](CCCCN)C(=O)N[C@@H](CCC(=O)O)C(=O)N[C@@H](Cc1ccc(O)cc1)C(=O)N[C@@H](CCSC)C(=O)N[C@@H](CCC(=O)O)C(=O)N[C@@H](CCCNC(=N)N)C(=O)N[C@@H](CCC(N)=O)C(=O)NCC(=O)N[C@@H](CCCCN)C(=O)N[C@H](C(=O)N1CCC[C@H]1C(=O)N[C@@H](CC(C)C)C(=O)O)[C@@H](C)O)[C@@H](C)O)[C@@H](C)CC` [HR2-2], for which the “Binding to HR1-1 peptide (in words)” value is recorded as “strongly bind”. Also, the Response (concentration 3.75 μM) turned out to be 0.0341 nm. Under “concentration 7.5 μM”, this compound displayed a Response of 0.0743 nm. Further, the Response (concentration 15 μM) is on record as 0.0958 nm. The Response (concentration 30 μM) was 0.119 nm.

On to `CC[C@H](C)[C@H](NC(=O)[C@H](CC(=O)O)NC(=O)[C@H](CC(=O)O)NC(=O)[C@H](CO)NC(=O)[C@H](Cc1ccccc1)NC(=O)[C@H](Cc1c[nH]cn1)NC(=O)[C@@H](N)[C@@H](C)O)C(=O)N[C@@H](CCC(=O)O)C(=O)N[C@@H](CCC(N)=O)C(=O)N[C@@H](CCC(N)=O)C(=O)N[C@@H](C)C(=O)N[C@@H](CC(=O)O)C(=O)N[C@@H](CC(N)=O)C(=O)N[C@@H](CCSC)C(=O)N[C@H](C(=O)N[C@H](C(=O)N[C@@H](CCC(=O)O)C(=O)N[C@@H](CCSC)C(=O)N[C@@H](CC(C)C)C(=O)N[C@@H](CCC(N)=O)C(=O)N[C@@H](CCCCN)C(=O)N[C@@H](CCC(=O)O)C(=O)N[C@@H](Cc1ccc(O)cc1)C(=O)N[C@@H](CCSC)C(=O)N[C@@H](CCC(=O)O)C(=O)O)[C@@H](C)O)[C@@H](C)CC` [HR2-3], for which the kon was determined as 1420 M⁻¹ s⁻¹. Moreover, for the setting “read-out: Kdis”, the koff stood at 0.0823 s⁻¹.
